Ki and melting point data for 21 compounds are collected here from patent publication US6821970B2, “Oxazinocarbazoles for the treatment of CNS diseases” (Pharmacia & Upjohn Company, priority 1999, dated 2004).

For data set [1], the target named is T1, cloned human 5-HT6 receptor (Homo sapiens, UniProt P50406).
T1 construct: host or cells: HeLa cells (G-418 selected); membrane preparation
Nature of the data set: 5-HT6 receptor binding assay ([3H]-LSD radioligand, SPA beads). The conditions noted are these: membranes of Hela cells containing cloned human 5-HT6 receptor, IC50 converted by Cheng-Prusoff. As for the experimental part:
5-HT6 Receport Binding Assay
Growth of Cells and Membrane Preparation
Hela cells containing the cloned human 5-HT6 receptor were acquired from Dr. David R. Sibley's laboratory in National Institute of Health (see Sibley, D. R., J. Neurochemistry, 66, 47-56, 1996). Cells were grown in high glucose Dulbecco's modified Eagle's medium, supplemented with L-glutamine, 0.5% sodium pyruvate, 0.3% penicillin-streptomycin, 0.025% G-418 and 5% Gibco fetal bovine serum and then were harvested, when confluent, in cold phosphate buffered saline.
Harvested intact cells were washed once in cold phosphate-buffered saline. The cells were pelleted and resuspended in 100 ml of cold 50 mM Tris, 5 mM EDTA and 5 mM EGTA, pH 7.4. Homogenization was with a Vir Tishear generator, 4 cycles for 30 seconds each at setting 50. The homogenized cells were centrifuged at […] for 10 minutes and the supernatant was removed. The pellet was resuspended in 100 ml of the above buffer and rehomogenized for 2 cycles. The rehomogenized cells were then centrifuged at […] for 10 minutes and the supernatant was removed. The combined supernatant (200 ml) was centrifuged at 23,000 RPM (80,000×g) for 1 hour in a Beckman Rotor (42.1 Ti). The membrane pellet was resupended in 50-8-ml of assay buffer containing HEPES 20 mM, MgCl2 10 mM, NaCl 150 mM, EDTA 1 mM, pH 7.4 and stored frozen in aliqouts at −70° C.
5-HT6 Receptor Binding Assay
The radioligand binding assay used [^3H]-lysergic acid diethylamide (LSD). The assay was carried out in Wallac 96-well sample plates by the addition of 11 μl of the test sample at the appropriate dilution (the assay employed 11 serial concentrations of samples run in duplicate), 11 μl of radioligand, and 178 μl of a washed mixture of WGA-coated SPA beads and membranes in binding buffer. The plates were shaken for about 5 minutes and then incubated at room temperature for 1 hour. The plates were then loaded into counting cassettes and counted in a Wallac MicroBeta Trilux scintillation counter.
Binding Constant (Ki) Determination
Eleven serial dilutions of test compounds were distributed to assay plates using the PE/Cetus Pro/Pette pipetter. These dilutions were, followed by radioligand and the bead-membrane mixture prepared as described above. The specifically bound cpm obtained were fit to a one-site binding model using GraphPad Prism ver. 2.0. Estimated IC50 values were converted to Ki values using the Cheng-Prusoff equation (Cheng, Y. C. et al., Biochem. Pharmacol., 22, 3099-108, 1973).

Where a name gives a salt, the structure may show the parent alone.

T1 sequence (P50406 whole entry): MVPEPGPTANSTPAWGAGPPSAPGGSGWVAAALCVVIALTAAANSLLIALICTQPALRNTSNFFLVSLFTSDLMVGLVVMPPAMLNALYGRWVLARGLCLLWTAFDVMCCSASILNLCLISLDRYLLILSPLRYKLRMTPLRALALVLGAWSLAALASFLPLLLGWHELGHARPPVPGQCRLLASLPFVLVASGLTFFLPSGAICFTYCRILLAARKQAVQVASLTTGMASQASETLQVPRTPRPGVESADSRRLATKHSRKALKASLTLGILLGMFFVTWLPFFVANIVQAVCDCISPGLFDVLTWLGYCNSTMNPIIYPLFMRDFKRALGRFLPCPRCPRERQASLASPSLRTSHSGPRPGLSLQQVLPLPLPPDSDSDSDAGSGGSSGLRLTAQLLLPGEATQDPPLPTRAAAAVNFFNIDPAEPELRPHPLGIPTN

As to `OCCNCCOc1cccc2c1c1cccc3c1n2[C@H](c1ccccc1)CO3` [Example 22, [(2-{[(1R)-1-Phenyl-1,2-dihydro[1,4]oxazino[2,3,4-jk]carbazol-7-yl]oxy}ethyl)amino]ethanol], affinity in data set [1] was put at a Ki of 3 nM.

Regarding `c1ccc(C2COc3cccc4c5c(OCCN6CCOCC6)cccc5n2c34)cc1` (centres unmarked) [Example 15, 2-(4-Morpholinyl)ethyl 1-phenyl-1,2-dihydro[1,4]oxazino[2,3,4-jk]carbazol-7-yl Ether], the Ki – broadly, a dissociation constant, usually derived from enzyme kinetics or from competition with a known ligand – in data set [1] turned out to be 97 nM.

For `CCN(CC)CCOc1cccc2c1c1cccc3c1n2C(c1ccccc1)CO3` (centres unmarked) (as salt: maleic acid salt) [Example 3, N,N-Diethyl-2-[(1-phenyl-1,2-dihydro[1,4]oxazino[2,3,4-jk]carbazol-7-yl)oxy]-1-ethanamine], the melting point – broadly, the temperature of the solid-liquid transition – fell in the range of 105 to 107 °C.

The compound `OCCNCCOc1cccc2c1c1cccc3c1n2C(c1ccccc1)CO3` (centres unmarked) [Example 17, 2-({2-[(1-Phenyl-1,2-dihydro[1,4]oxazino[2,3,4-jk]carbazol-7-yl)oxy]ethyl}amino)-1-ethanol] returned an inhibition constant Ki in data set [1] of 1.1 nM.

In data set [1], `CCN(CC)CCCCOc1cccc2c1c1cccc3c1n2C(c1ccccc1)CO3` (centres unmarked) [Example 20, N,N-Diethyl-N-{4-[(1-phenyl-1,2-dihydro[1,4]oxazino[2,3,4-jk]carbazol-7-yl)oxy]butyl}amine] showed a Ki of 28 nM.

With `Cc1cc2c3c(c1)c1c(OCCN)cccc1n3C(c1ccccc1)CO2` (centres unmarked) [Example 19, 2-[(5-Methyl-1-phenyl-1,2-dihydro[1,4]oxazino[2,3,4-jk]carbazol-7-yl)oxy]-1-ethanamine], in data set [1], the affinity corresponds to a Ki of 8 nM.

In turn, `CCNCCOc1cccc2c1c1cc(C)cc3c1n2C(c1ccccc1)CO3` (centres unmarked) [Example 11, N-Ethyl-2-[(5-methyl-1-phenyl-1,2-dihydro[1,4]oxazino[2,3,4-jk]carbazol-7-yl)oxy]-1-ethanamine] returned a Ki in data set [1] of 5.3 nM.

In the case of `CCN(CC)CCOc1cccc2c1c1cccc3c1n2C(c1ccccc1)CO3` (centres unmarked) [Example 3, N,N-Diethyl-2-[(1-phenyl-1,2-dihydro[1,4]oxazino[2,3,4-jk]carbazol-7-yl)oxy]-1-ethanamine], the Ki in data set [1] turned out to be 7.6 nM.

As for `NCCOc1c(Cl)ccc2c1c1cccc3c1n2C(c1ccccc1)CO3` (centres unmarked) [Example 9, 2-[(8-Chloro-1-phenyl-1,2-dihydro[1,4]oxazino[2,3,4-jk]carbazol-7-yl)oxy]-1-ethanamine], the Ki in data set [1] stood at 5.8 nM.

Regarding `CNCCOc1cccc2c1c1cccc3c1n2C(c1ccccc1)CO3` (centres unmarked) [Example 8, N-Methyl-2-[(1-phenyl-1,2-dihydro[1,4]oxazino[2,3,4-jk]carbazol-7-yl)oxy]-1-ethanamine], in data set [1], the affinity corresponds to a Ki of 2 nM.

Consider `c1ccc(C2COc3cccc4c5c(OCCN6CCNCC6)cccc5n2c34)cc1` (centres unmarked) [Example 13, 1-Phenyl-1,2-dihydro[1,4]oxazino[2,3,4-jk]carbazol-7-yl 2-(1-piperazinyl)ethyl Ether], for which the melting point turned out to be 72 °C. Besides, the inhibitory constant (Ki) in data set [1] was 57 nM.

`CCNCCOc1cccc2c1c1cccc3c1n2C(c1ccccc1)CO3.O=C(O)/C=C\C(=O)O` (centres unmarked) [Example 6, N-Ethyl-2-[(1-phenyl-1,2-dihydro[1,4]oxazino[2,3,4-jk]carbazol-7-yl)oxy]-1-ethanamine] had a melting point of 105 °C. Also, in data set [1], the Ki was 2.7 nM.

Compound `CC(C)(C)OC(=O)N1CCN(CCOc2cccc3c2c2cccc4c2n3C(c2ccccc2)CO4)CC1` (centres unmarked) [Example 12, tert-Butyl 4-{2-[(1-phenyl-1,2-dihydro[1,4]oxazino[2,3,4-jk]carbazol-7-yl)oxy]ethyl}-1-piperazinecarboxylate] yielded a melting point of 72 °C. In data set [1], the Ki was 35 nM.

In data set [1], `CCN(CC)CCCOc1cccc2c1c1cccc3c1n2C(c1ccccc1)CO3` (centres unmarked) [Example 21, N,N-Diethyl-N-{3-[(1-phenyl-1,2-dihydro[1,4]oxazino[2,3,4-jk]carbazol-7-yl)oxy]propyl}amine] registered a Ki of 19 nM.

As for `CS(=O)(=O)O.NCCOc1cccc2c1c1cccc3c1n2[C@H](c1ccccc1)CO3` [Example 2, (R)-(−)-[(1-Phenyl-1,2-dihydro[1,4]oxazino[2,3,4-jk]carbazol-7-yl)oxy]ethanamine], the melting point was determined as 236 °C.

In turn, `CN(C)CCOc1cccc2c1c1cccc3c1n2C(c1ccccc1)CO3` (centres unmarked) [Example 18, N,N-dimethyl-2-[(1-phenyl-1,2-dihydro[1,4]oxazino[2,3,4-jk]carbazol-7-yl)oxy]-1-ethanamine] registered a melting point of 117 to 118 °C. In data set [1], this compound had a Ki of 3.3 nM.

`c1ccc(C2COc3cccc4c5c(OCCN6CCCCC6)cccc5n2c34)cc1` (centres unmarked) [Example 16, 1-Phenyl-1,2-dihydro[1,4]oxazino[2,3,4-jk]carbazol-7-yl 2-(1-piperidinyl)ethyl Ether] registered a Ki in data set [1] of 5 nM.

`O=CNCCOc1cccc2c1c1cccc3c1n2C(c1ccccc1)CO3` (centres unmarked) [Example 7, 2-[(1-Phenyl-1,2-dihydro[1,4]oxazino[2,3,4-jk]carbazol-7-yl)oxy]ethylformamide] showed a Ki in data set [1] of 39 nM.

The compound `CN1CCN(CCOc2cccc3c2c2cccc4c2n3C(c2ccccc2)CO4)CC1` (centres unmarked) [Example 14, 2-(4-Methyl-1-piperazinyl)ethyl 1-phenyl-1,2-ihydro[1,4]oxazino [2,3,4-jk]carbazol-7-yl Ether] had a melting point of 57 °C. This compound registered a Ki in data set [1] of 6.9 nM.

Compound `NCCOc1cccc2c1c1cccc3c1n2C(c1ccccc1)CO3` (centres unmarked) [Example 4, [(1-Phenyl-1,2-dihydro[1,4]oxazino[2,3,4-jk]carbazol-7-yl)oxy]ethanamine] yielded an inhibition constant Ki in data set [1] of 1.7 nM.

As for `NCCOc1cccc2c1c1cccc3c1n2[C@@H](c1ccccc1)CO3` [Example 1, (S)-(+)-[(1-Phenyl-1,2-dihydro[1,4]oxazino[2,3,4-jk]carbazol-7-yl)oxy]ethanamine], in data set [1], the Ki is 76 nM.
